According to ChEMBL document CHEMBL2150993, “Substituted thiazoles VII. Synthesis and antitumor activity of certain 2-(substituted amino)-4-phenyl-1,3-thiazole analogs” (2012):
Active and inactive are the calls of the source. The calls are words filed in the database; no cut-off is given here.

Columns and labels:
Assay type in all cases: functional
NCI-H226 = assay: Growth inhibition of human NCI-H226 cells after 48 hrs by cell counting analysis; conditions: at 10 µM
HOP-62 = assay: Growth inhibition of human HOP62 cells after 48 hrs by cell counting analysis; conditions: at 10 µM
T47D = assay: Growth inhibition of human T47D cells after 48 hrs by cell counting analysis; conditions: at 10 µM
MDA-MB-468 = assay: Growth inhibition of human MDA-MB-468 cells after 48 hrs by cell counting analysis
PC-3 = assay: Growth inhibition of human PC3 cells after 48 hrs by cell counting analysis; conditions: at 10 µM
[1] = Antiproliferative activity against human colon cancer cells after 48 hrs by cell counting analysis; conditions: Cancer cell lines
UACC-257 = assay: Growth inhibition of human UACC257 cells after 48 hrs by cell counting analysis; conditions: at 10 µM
OVCAR-8 = assay: Growth inhibition of human OVCAR8 cells after 48 hrs by cell counting analysis; conditions: at 10 µM
SF-295 = assay: Growth inhibition of human SF295 cells after 48 hrs by cell counting analysis; conditions: at 10 µM
MCF7 = assay: Growth inhibition of human MCF7 cells after 48 hrs by cell counting analysis; conditions: at 10 µM
K562 = assay: Growth inhibition of human K562 cells after 48 hrs by cell counting analysis; conditions: at 10 µM
RXF 393 = assay: Growth inhibition of human RXF393 cells after 48 hrs by cell counting analysis; conditions: at 10 µM
NCI-H522 = assay: Growth inhibition of human NCI-H522 cells after 48 hrs by cell counting analysis; conditions: at 10 µM
MOLT-4 = assay: Growth inhibition of human MOLT4 cells after 48 hrs by cell counting analysis; conditions: at 10 µM
HCT-116 = assay: Growth inhibition of human HCT116 cells after 48 hrs by cell counting analysis; conditions: at 10 µM
SK-OV-3 = assay: Growth inhibition of human SKOV3 cells after 48 hrs by cell counting analysis; conditions: at 10 µM
[2] = Antiproliferative activity against human non-small cell lung cancer cells after 48 hrs by cell counting analysis; conditions: Cancer cell lines
MDA-MB-231 = assay: Growth inhibition of human MDA-MB-231 cells after 48 hrs by cell counting analysis; conditions: at 10 µM
RPMI-8226 = assay: Growth inhibition of human RPMI8226 cells after 48 hrs by cell counting analysis; conditions: at 10 µM
M14 = assay: Growth inhibition of human M14 cells after 48 hrs by cell counting analysis; conditions: at 10 µM
A549 = assay: Growth inhibition of human A549 cells after 48 hrs by cell counting analysis; conditions: at 10 µM
[3] = Antiproliferative activity against human CNS cancer cells after 48 hrs by cell counting analysis; conditions: Cancer cell lines
MDA-MB-435 = assay: Growth inhibition of human MDA-MB-435 cells after 48 hrs by cell counting analysis; conditions: at 10 µM
KM12 = assay: Growth inhibition of human KM12 cells after 48 hrs by cell counting analysis; conditions: at 10 µM
CCRF-CEM = assay: Growth inhibition of human CCRF-CEM cells after 48 hrs by cell counting analysis; conditions: at 10 µM
OVCAR-5 = assay: Growth inhibition of human OVCAR5 cells after 48 hrs by cell counting analysis; conditions: at 10 µM
[4] = Antiproliferative activity against human melanoma cells after 48 hrs by cell counting analysis
IGROV-1 = assay: Growth inhibition of human IGROV1 cells after 48 hrs by cell counting analysis; conditions: at 10 µM
CAKI-1 = assay: Growth inhibition of human Caki1 cells after 48 hrs by cell counting analysis; conditions: at 10 µM
SR = assay: Growth inhibition of human SR cells after 48 hrs by cell counting analysis; conditions: at 10 µM
UO-31 = assay: Growth inhibition of human UO31 cells after 48 hrs by cell counting analysis; conditions: at 10 µM
SK-MEL-5 = assay: Growth inhibition of human SK-MEL-5 cells after 48 hrs by cell counting analysis; conditions: at 10 µM
HOP-92 = assay: Growth inhibition of human HOP92 cells after 48 hrs by cell counting analysis; conditions: at 10 µM
BT-549 = assay: Growth inhibition of human BT549 cells after 48 hrs by cell counting analysis; conditions: at 10 µM
TK-10 = assay: Growth inhibition of human TK10 cells after 48 hrs by cell counting analysis
[5] = Growth inhibition of human NCI-ADR-RES cells after 48 hrs by cell counting analysis; conditions: at 10 µM
HCT-15 = assay: Growth inhibition of human HCT15 cells after 48 hrs by cell counting analysis; conditions: at 10 µM
[6] = Antiproliferative activity against human breast cancer cells after 48 hrs by cell counting analysis; conditions: Cancer cell lines
[7] = Antiproliferative activity against human leukemia cells after 48 hrs by cell counting analysis
[8] = Antiproliferative activity against human ovarian cancer cells after 48 hrs by cell counting analysis; conditions: Cancer cell lines
SN12C = assay: Growth inhibition of human SN12C cells after 48 hrs by cell counting analysis; conditions: at 10 µM
OVCAR-4 = assay: Growth inhibition of human OVCAR4 cells after 48 hrs by cell counting analysis; conditions: at 10 µM
ACHN = assay: Growth inhibition of human ACHN cells after 48 hrs by cell counting analysis; conditions: at 10 µM
HCC 2998 = assay: Growth inhibition of human HCC2998 cells after 48 hrs by cell counting analysis; conditions: at 10 µM
SF-268 = assay: Growth inhibition of human SF268 cells after 48 hrs by cell counting analysis; conditions: at 10 µM
EKVX = assay: Growth inhibition of human EKVX cells after 48 hrs by cell counting analysis; conditions: at 10 µM
LOX IMVI = assay: Growth inhibition of human LOXIMVI cells after 48 hrs by cell counting analysis; conditions: at 10 µM
NCI-H23 = assay: Growth inhibition of human NCI-H23 cells after 48 hrs by cell counting analysis
SNB-19 = assay: Growth inhibition of human SNB19 cells after 48 hrs by cell counting analysis; conditions: at 10 µM
SW-620 = assay: Growth inhibition of human SW620 cells after 48 hrs by cell counting analysis; conditions: at 10 µM
[9] = Growth inhibition of human NCI-322M cells after 48 hrs by cell counting analysis; conditions: at 10 µM
[10] = Antiproliferative activity against human prostate cancer cells after 48 hrs by cell counting analysis; conditions: Cancer cell lines
SNB-75 = assay: Growth inhibition of human SNB75 cells after 48 hrs by cell counting analysis; conditions: at 10 µM
HT-29 = assay: Growth inhibition of human HT-29 cells after 48 hrs by cell counting analysis; conditions: at 10 µM
SK-MEL-2 = assay: Growth inhibition of human SK-MEL-2 cells after 48 hrs by cell counting analysis; conditions: at 10 µM
U-251 = assay: Growth inhibition of human U251 cells after 48 hrs by cell counting analysis; conditions: at 10 µM
[11] = Antiproliferative activity against human renal cancer cells after 48 hrs by cell counting analysis; conditions: Cancer cell lines
OVCAR-3 = assay: Growth inhibition of human OVCAR3 cells after 48 hrs by cell counting analysis; conditions: at 10 µM
SF-539 = assay: Growth inhibition of human SF539 cells after 48 hrs by cell counting analysis; conditions: at 10 µM
SK-MEL-28 = assay: Growth inhibition of human SK-MEL-28 cells after 48 hrs by cell counting analysis; conditions: at 10 µM
Malme-3M = assay: Growth inhibition of human MALME-3M cells after 48 hrs by cell counting analysis; conditions: at 10 µM
UACC-62 = assay: Growth inhibition of human UACC62 cells after 48 hrs by cell counting analysis; conditions: at 10 µM
HL-60 = assay: Growth inhibition of human HL60 cells after 48 hrs by cell counting analysis; conditions: at 10 µM
[12] = read-out: LC50 (the source's name)

## Cc1ccc(-c2csc(NC(=O)CCCl)n2)cc1
NCI-H226
  growth inhibition (GI): 22%
HOP-62
  growth inhibition (GI): 16.2%
T47D
  growth inhibition (GI): 55.2%
MDA-MB-468
  growth inhibition (GI): Active
PC-3
  growth inhibition (GI): 69.5%
[1]
  GI50: 3.2 µM
  TGI: 11.9 µM
[1]; [12]
  CC50: 39.2 µM
UACC-257
  growth inhibition (GI): 41.3%
OVCAR-8
  growth inhibition (GI): 60.6%
SF-295
  growth inhibition (GI): 30.2%
MCF7
  growth inhibition (GI): 65.9%
K562
  growth inhibition (GI): 21.1%
RXF 393
  growth inhibition (GI): 43.8%
NCI-H522
  growth inhibition (GI): 41%
MOLT-4
  growth inhibition (GI): 43.3%
HCT-116
  growth inhibition (GI): 46.2%
SK-OV-3
  growth inhibition (GI): 63%
[2]
  GI50: 6.3 µM
  TGI: 20.3 µM
[2]; [12]
  CC50: 61.5 µM
MDA-MB-231
  growth inhibition (GI): 53.5%
RPMI-8226
  growth inhibition (GI): 80.9%
M14
  growth inhibition (GI): 56.1%
A549
  growth inhibition (GI): 77.3%
[3]
  GI50: 4.8 µM
  TGI: 17.6 µM
[3]; [12]
  CC50: 50.2 µM
MDA-MB-435
  growth inhibition (GI): 36.9%
KM12
  growth inhibition (GI): 82.4%
CCRF-CEM
  growth inhibition (GI): 88.3%
OVCAR-5
  growth inhibition (GI): 29.3%
[4]
  GI50: 4.2 µM
  TGI: 13.4 µM
[4]; [12]
  CC50: 44.3 µM
IGROV-1
  growth inhibition (GI): 63.1%
CAKI-1
  growth inhibition (GI): 55.6%
SR
  growth inhibition (GI): 88.5%
UO-31
  growth inhibition (GI): 61.3%
SK-MEL-5
  growth inhibition (GI): 16.6%
HOP-92
  growth inhibition (GI): 50.5%
BT-549
  growth inhibition (GI): 72.3%
TK-10
  growth inhibition (GI): Active
[5]
  growth inhibition (GI): 55.8%
HCT-15
  growth inhibition (GI): 25.9%
[6]
  GI50: 3.3 µM
  TGI: 32.3 µM
[6]; [12]
  CC50: 62.1 µM
[7]
  GI50: 2 µM
  TGI: 21.5 µM
[7]; [12]
  CC50: > 100 µM
[8]
  GI50: 4.8 µM
  TGI: 31.3 µM
[8]; [12]
  CC50: 61.1 µM
SN12C
  growth inhibition (GI): 33.2%
OVCAR-4
  growth inhibition (GI): 81.5%
ACHN
  growth inhibition (GI): 45.1%
HCC 2998
  growth inhibition (GI): 22.5%
SF-268
  growth inhibition (GI): 46.3%
EKVX
  growth inhibition (GI): 50.3%
LOX IMVI
  growth inhibition (GI): 45.1%
NCI-H23
  growth inhibition (GI): Active
SNB-19
  growth inhibition (GI): 73.1%
SW-620
  growth inhibition (GI): 65.2%
[9]
  growth inhibition (GI): 55.9%
[10]
  GI50: 3.8 µM
  TGI: 16.8 µM
[10]; [12]
  CC50: 63.4 µM
SNB-75
  growth inhibition (GI): 34.6%
HT-29
  growth inhibition (GI): 21%
SK-MEL-2
  growth inhibition (GI): 54.2%
U-251
  growth inhibition (GI): 48.5%
[11]
  GI50: 2.8 µM
  TGI: 12.5 µM
[11]; [12]
  CC50: 39.3 µM
OVCAR-3
  growth inhibition (GI): 45.3%
SF-539
  growth inhibition (GI): 25.2%
SK-MEL-28
  growth inhibition (GI): 31%
Malme-3M
  growth inhibition (GI): 29.1%
UACC-62
  growth inhibition (GI): 41.8%
HL-60
  growth inhibition (GI): 41.4%
